Assays:
CCRF-CEM = test: NCI 60 cell panel SRB screen; format: cell-based, human
K-562 = test: NCI 60 cell panel SRB screen; format: cell-based; details: Homo sapiens, K562
RPMI-8226 = test: NCI 60 cell panel SRB screen; format: cell-based; details: Homo sapiens
SR = test: NCI 60 cell panel SRB screen; format: cell-based; details: Homo sapiens
NCI-H226 = test: NCI 60 cell panel SRB screen; format: cell-based; details: Homo sapiens
NCI-H23 = test: NCI 60 cell panel SRB screen; format: cell-based; details: Homo sapiens
NCI-H322M = test: NCI 60 cell panel SRB screen; format: cell-based; details: Homo sapiens
NCI-H522 = test: NCI 60 cell panel SRB screen; format: cell-based; details: Homo sapiens
COLO 205 = test: NCI 60 cell panel SRB screen; format: cell-based; details: Homo sapiens
SW-620 = test: NCI 60 cell panel SRB screen; format: cell-based; details: Homo sapiens
SNB-75 = test: NCI 60 cell panel SRB screen; format: cell-based; details: Homo sapiens
LOX IMVI = test: NCI 60 cell panel SRB screen; format: cell-based; details: Homo sapiens
MALME-3M = test: NCI 60 cell panel SRB screen; format: cell-based; details: Homo sapiens
SK-MEL-28 = test: NCI 60 cell panel SRB screen; format: cell-based; details: Homo sapiens
OVCAR-4 = test: NCI 60 cell panel SRB screen; format: cell-based; details: Homo sapiens
OVCAR-5 = test: NCI 60 cell panel SRB screen; format: cell-based; details: Homo sapiens
786-0 = test: NCI 60 cell panel SRB screen; format: cell-based; details: Homo sapiens
BT-549 = test: NCI 60 cell panel SRB screen; format: cell-based; details: Homo sapiens
T-47D = test: NCI 60 cell panel SRB screen; format: cell-based; details: Homo sapiens, T47D
VEGFR-2 tyrosine kinase = molecular target: T1, VEGFR-2 tyrosine kinase (Homo sapiens, UniProt P35968); test: In vitro VEGFR-2 tyrosine kinase assay (BPS Bioscience); format: biochemical; details: read-out: VEGFR-2 % inhibition; 10 μM concentration
T1 construct: purchased BPS Bioscience 40301
In short: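 Single-point screen at 10 µM: recombinant VEGFR with poly(Glu,Tyr) 0.2 mg/ml, 10 μM ATP, Tris pH 7.4, MgCl2, BSA, 1% DMSO, 40 min at 30 °C; residual ATP read by Kinase-Glo Plus luminescence.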

[1] = 5 log dose, 48 h, read-out: LC50 (the source's name)
[2] = single dose 10 μM, read-out: percent cell growth promotion
[3] = read-out: percent cell growth promotion

T1 sequence (P35968 20-1356): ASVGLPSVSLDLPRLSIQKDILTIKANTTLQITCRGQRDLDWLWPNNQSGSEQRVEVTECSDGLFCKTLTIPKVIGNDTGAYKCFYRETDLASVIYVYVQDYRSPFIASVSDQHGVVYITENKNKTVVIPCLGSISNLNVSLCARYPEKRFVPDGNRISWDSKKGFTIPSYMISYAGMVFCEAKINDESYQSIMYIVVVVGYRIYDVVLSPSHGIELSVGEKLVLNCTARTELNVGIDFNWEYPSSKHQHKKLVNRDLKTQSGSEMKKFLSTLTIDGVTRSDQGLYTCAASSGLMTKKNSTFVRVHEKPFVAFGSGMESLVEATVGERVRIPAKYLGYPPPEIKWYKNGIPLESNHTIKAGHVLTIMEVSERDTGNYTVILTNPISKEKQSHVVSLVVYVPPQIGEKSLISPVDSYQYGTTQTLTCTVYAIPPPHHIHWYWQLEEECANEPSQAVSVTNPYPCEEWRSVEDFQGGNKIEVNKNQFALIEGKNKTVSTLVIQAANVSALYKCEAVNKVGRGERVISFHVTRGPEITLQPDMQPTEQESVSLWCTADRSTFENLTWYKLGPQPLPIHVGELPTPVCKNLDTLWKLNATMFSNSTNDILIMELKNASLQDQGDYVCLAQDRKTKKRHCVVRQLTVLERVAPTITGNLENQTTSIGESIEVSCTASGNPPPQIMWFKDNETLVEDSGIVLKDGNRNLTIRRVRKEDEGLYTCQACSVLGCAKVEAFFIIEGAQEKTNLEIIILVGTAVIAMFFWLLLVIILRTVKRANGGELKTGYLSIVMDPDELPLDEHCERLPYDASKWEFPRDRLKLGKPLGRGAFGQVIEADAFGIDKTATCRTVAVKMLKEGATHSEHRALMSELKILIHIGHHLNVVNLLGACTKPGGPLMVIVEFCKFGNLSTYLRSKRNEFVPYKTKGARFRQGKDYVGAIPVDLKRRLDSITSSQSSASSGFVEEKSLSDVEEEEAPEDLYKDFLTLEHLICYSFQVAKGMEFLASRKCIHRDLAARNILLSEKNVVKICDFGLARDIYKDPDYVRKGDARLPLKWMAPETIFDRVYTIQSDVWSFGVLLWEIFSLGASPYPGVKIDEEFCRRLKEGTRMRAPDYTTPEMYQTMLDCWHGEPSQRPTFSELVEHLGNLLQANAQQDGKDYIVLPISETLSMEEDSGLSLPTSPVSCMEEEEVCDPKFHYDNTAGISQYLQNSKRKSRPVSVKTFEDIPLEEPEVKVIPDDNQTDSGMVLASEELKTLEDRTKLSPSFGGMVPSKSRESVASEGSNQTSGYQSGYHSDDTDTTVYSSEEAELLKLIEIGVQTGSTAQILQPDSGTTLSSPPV

**Q.** Which results are given for `O=C(Nc1ccc(Cl)cc1)Nc1ccc(Nc2nncc3ccccc23)cc1` [Compound 6b, 1–(4-Chlorophenyl)-3–(4-(phthalazin-1-ylamino)phenyl)urea]?
**A.** TGI (CCRF-CEM; 5 log dose): 17.0 µM; GI50 (CCRF-CEM; Homo sapiens, 5 log dose): 2.57 µM; CC50 (CCRF-CEM; Homo sapiens, 5 log dose, 48 h, read-out: LC50 (the source's name)): > 100 µM; activity at 10 µM (CCRF-CEM; Homo sapiens, single dose 10 μM, read-out: percent cell growth promotion): 13.1%; GI50 (K-562; K-562, 5 log dose): 1.68 µM; IC (TGI) (K-562; K-562, 5 log dose): 26.4 µM; CC50 (K-562; K-562, 5 log dose, 48 h, read-out: LC50 (the source's name)): > 100 µM; activity at 10 µM (K-562; K-562, single dose 10 μM, read-out: percent cell growth promotion): 9.49%; GI50 (RPMI-8226; RPMI-8226, 5 log dose): 2.5 µM; IC (TGI) (RPMI-8226; RPMI-8226, 5 log dose): 8.75 µM; CC50 (RPMI-8226; RPMI-8226, 5 log dose, 48 h, read-out: LC50 (the source's name)): > 100 µM; activity at 10 µM (RPMI-8226; RPMI-8226, single dose 10 μM, read-out: percent cell growth promotion): 8.62%; GI50 (SR; 5 log dose): 3.89 µM; IC (TGI) (SR; 5 log dose): 23.3 µM; CC50 (SR; [1]): > 100 µM; activity at 10 µM (SR; [2]): 17.5%; GI50 (NCI-H226; NCI-H226, 5 log dose): 2.46 µM; IC (TGI) (NCI-H226; NCI-H226, 5 log dose): 12.5 µM; CC50 (NCI-H226; NCI-H226, 5 log dose, 48 h, read-out: LC50 (the source's name)): 43.2 µM; activity at 10 µM (NCI-H226; NCI-H226, single dose 10 μM, read-out: percent cell growth promotion): 33.3%; GI50 (NCI-H23; NCI-H23, 5 log dose): 3.07 µM; IC (TGI) (NCI-H23; NCI-H23, 5 log dose): 14.4 µM; CC50 (NCI-H23; NCI-H23, 5 log dose, 48 h, read-out: LC50 (the source's name)): 71.8 µM; activity at 10 µM (NCI-H23; NCI-H23, single dose 10 μM, read-out: percent cell growth promotion): 12.5%; GI50 (NCI-H322M; 5 log dose): 5 µM; IC (TGI) (NCI-H322M; 5 log dose): 15 µM; CC50 (NCI-H322M; [1]): > 100 µM; activity at 10 µM (NCI-H322M; [2]): 64.3%; GI50 (NCI-H522; NCI-H522, 5 log dose): 1.32 µM; IC (TGI) (NCI-H522; NCI-H522, 5 log dose): 8.81 µM; CC50 (NCI-H522; NCI-H522, 5 log dose, 48 h, read-out: LC50 (the source's name)): 43.2 µM; activity at 10 µM (NCI-H522; NCI-H522, single dose 10 μM, read-out: percent cell growth promotion): 11.9%; GI50 (COLO 205; COLO 205, 5 log dose): 2.77 µM; IC (TGI) (COLO 205; COLO 205, 5 log dose): 9.58 µM; CC50 (COLO 205; COLO 205, 5 log dose, 48 h, read-out: LC50 (the source's name)): 34.6 µM; activity at 10 µM (COLO 205; COLO 205, single dose 10 μM, read-out: percent cell growth promotion): 18.6%; GI50 (SW-620; SW-620, 5 log dose): 3.16 µM; IC (TGI) (SW-620; SW-620, 5 log dose): 18.6 µM; CC50 (SW-620; SW-620, 5 log dose, 48 h, read-out: LC50 (the source's name)): 81.8 µM; activity at 10 µM (SW-620; SW-620, single dose 10 μM, read-out: percent cell growth promotion): 27%; GI50 (SNB-75; SNB-75, 5 log dose): 1.88 µM; IC (TGI) (SNB-75; SNB-75, 5 log dose): 8.67 µM; LC50 (concentration killing 50% of cells) (SNB-75; SNB-75, 5 log dose, 48 h): 31.8 µM; activity at 10 µM (SNB-75; SNB-75, single dose 10 μM, read-out: percent cell growth promotion): 46.2%; GI50 (LOX IMVI): 0.82 µM; CC50 (LOX IMVI; [1]): 53.2 µM; IC (TGI) (LOX IMVI; read-out: TGI): 14.6 µM; activity at 10 µM (LOX IMVI; [3]): 33.6%; GI50 (MALME-3M; Malme-3M): 3.94 µM; IC (TGI) (MALME-3M; Malme-3M, read-out: TGI): 16.5 µM; activity at 10 µM (MALME-3M; Malme-3M, read-out: percent cell growth promotion): 38.5%; CC50 (MALME-3M; MALME-3M, 5 log dose, 48 h, read-out: LC50 (the source's name)): 50 µM; GI50 (SK-MEL-28; SK-MEL-28): 3.04 µM; IC (TGI) (SK-MEL-28; SK-MEL-28, read-out: TGI): 12.8 µM; activity at 10 µM (SK-MEL-28; SK-MEL-28, read-out: percent cell growth promotion): 44.1%; CC50 (SK-MEL-28; SK-MEL-28, 5 log dose, 48 h, read-out: LC50 (the source's name)): 51.5 µM; GI50 (OVCAR-4; OVCAR-4, 5 log dose): 1.97 µM; IC (TGI) (OVCAR-4; OVCAR-4, 5 log dose): 8.17 µM; CC50 (OVCAR-4; OVCAR-4, 5 log dose, 48 h, read-out: LC50 (the source's name)): > 100 µM; activity at 10 µM (OVCAR-4; OVCAR-4, single dose 10 μM, read-out: percent cell growth promotion): 11.1%; GI50 (OVCAR-5; OVCAR-5, 5 log dose): 4.15 µM; IC (TGI) (OVCAR-5; OVCAR-5, 5 log dose): 34.3 µM; CC50 (OVCAR-5; OVCAR-5, 5 log dose, 48 h, read-out: LC50 (the source's name)): > 100 µM; activity at 10 µM (OVCAR-5; OVCAR-5, single dose 10 μM, read-out: percent cell growth promotion): 85.6%; GI50 (786-0; 786-0, 5 log dose): 3.09 µM; IC (TGI) (786-0; 786-0, 5 log dose): 25.2 µM; CC50 (786-0; 786-0, 5 log dose, 48 h, read-out: LC50 (the source's name)): > 100 µM; activity at 10 µM (786-0; 786-0, single dose 10 μM, read-out: percent cell growth promotion): 50.4%; GI50 (BT-549; BT-549): 2.15 µM; IC (TGI) (BT-549; BT-549, read-out: TGI): 9.28 µM; activity at 10 µM (BT-549; BT-549, read-out: percent cell growth promotion): 15.7%; CC50 (BT-549; BT-549, 5 log dose, 48 h, read-out: LC50 (the source's name)): > 100 µM; GI50 (T-47D): 1.03 µM; IC (TGI) (T-47D; read-out: TGI): 5.35 µM; activity at 10 µM (T-47D; [3]): -6.32%; CC50 (T-47D; T-47D, 5 log dose, 48 h, read-out: LC50 (the source's name)): 79.3 µM; inhibition at 10 µM (VEGFR-2 tyrosine kinase): 20%
